The text below walks through data of patent US11814376B2, “Hepatitis b core protein modulators” (Assembly Biosciences, Inc., priority 2015, dated 2023).

Each structure is given as a SMILES string.

Series [1] relates to HBV viral load in AD38 cells. Put plainly: Viral load production in AD38 cells, quantitative PCR of the core sequence in supernatant. In kind it is cell-based. The following applies: Hepatitis B virus, 144 h, 10 μM compound, 6 days at 37° C., supernatant qPCR, relative to DMSO control; read-out: AD38 Viral Load (%) (VL with cmpd/VL in DMSO control) at 10 μM. (Quantitative PCR measures a nucleic acid by following its amplification.)

In a further series the test system is AD38 cells. Put plainly: Viability of AD38 cells (Promega CellTiter-Glo). It counts as cell-based. The note with it: 10 μM compound, 6 days, CellTiter-Glo luminescence normalized to DMSO control (100%). The method in brief:
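AD38 cells were seeded at 50,000/well on collagen-coated plates and treated with compound added as a 10× solution in 10% DMSO for 6 days at 37° C. Viability was measured by CellTiter-Glo luminescence in tetracycline-free medium with 2% FBS and 1% DMSO, and expressed as percent of DMSO control.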

In the case of `O=C(NCc1cnc(-c2ccc(OCCCN(CCO)CCO)cc2)s1)c1ccc2c(c1)NC(=O)c1ccccc1S2(=O)=O` [compound 1998], the activity at 10 µM in series [1] worked out at 3.7%. For the same molecule, the “AD38 Viability Normalized Result (cmpd/DMSO %) at 10 μM” value in the series with AD38 cells turned out to be 99%.
Consider `CN(C)CCCCOc1ccc(-c2ncc(CNC(=O)c3ccc4c(c3)NC(=O)c3ccccc3S4(=O)=O)s2)cc1` [compound 11001], for which the activity at 10 µM in series [1] turned out to be 1.7%. Moreover, in the series on AD38 cells, the “AD38 Viability Normalized Result (cmpd/DMSO %) at 10 μM” value turned out to be 77%.
Turning to `NCCC#Cc1ccc(-c2ncc(CNC(=O)c3ccc4c(c3)NC(=O)c3ccccc3S4(=O)=O)s2)cc1` [compound 11002, N-((2-(4-(4-aminobut-1-yn-1-yl)phenyl)thiazol-5-yl)methyl)-11-oxo-10, 11-dihydrodibenzo [b, f] [1, 4] thiazepine-8-carboxamide 5,5-dioxide], in series [1], the activity at 10 µM was determined as 0.9%. For the same molecule, the “AD38 Viability Normalized Result (cmpd/DMSO %) at 10 μM” value with AD38 cells came out at 90%.
The corresponding values for `CN(C)CCC#Cc1ccc(-c2ncc(CNC(=O)c3ccc4c(c3)NC(=O)c3ccccc3S4(=O)=O)s2)cc1` [compound 11003, N-((2-(4-(4-(dimethylamino)but-1-yn-1-yl)phenyl)thiazol-5-yl)methyl)-11-oxo-10, 11-dihydrodibenzo [b, f] [1, 4] thiazepine-8-carboxamide 5,5-dioxide] are 0.3% and 97%.
With `Cl.NCCCCc1ccc(-c2ncc(CNC(=O)c3ccc4c(c3)NC(=O)c3ccccc3S4(=O)=O)s2)cc1` [compound 11004, N-((2-(4-(4-aminobutyl)phenyl)thiazol-5-yl)methyl)-11-oxo-10, 11-dihydrodibenzo [b, f] [1, 4] thiazepine-8-carboxamide 5,5-dioxide hydrochloride salt], the activity at 10 µM in series [1] was 5.5%. In addition, the “AD38 Viability Normalized Result (cmpd/DMSO %) at 10 μM” value in the series on AD38 cells is recorded as 94%.
The matching figures for `CN(C)CCCCc1ccc(-c2ncc(CNC(=O)c3ccc4c(c3)NC(=O)c3ccccc3S4(=O)=O)s2)cc1` [compound 11005, N-((2-(4-(4-(dimethylamino)butyl)phenyl)thiazol-5-yl)methyl)-11-oxo-10, 11-dihydrodibenzo [b, f] [1, 4] thiazepine-8-carboxamide 5,5-dioxide]: 1.9% and 102%.
Consider `CN(C)CCCSc1ccc(-c2ncc(CNC(=O)c3ccc4c(c3)NC(=O)c3ccccc3S4(=O)=O)s2)cc1` [compound 11006, N-((2-(4-((3-(dimethylamino)propyl)thio)phenyl)thiazol-5-yl)methyl)-11-oxo-10, 11-dihydrodibenzo [b, f] [1, 4] thiazepine-8-carboxamide 5,5-dioxide], for which, in series [1], the activity at 10 µM is 1.3%. The “AD38 Viability Normalized Result (cmpd/DMSO %) at 10 μM” value in the series on AD38 cells is given as 97%.
As for `Cl.NCCCSc1ccc(-c2ncc(CNC(=O)c3ccc4c(c3)NC(=O)c3ccccc3S4(=O)=O)s2)cc1` [compound 11007, N-((2-(4-((3-aminopropyl)thio)phenyl)thiazol-5-yl)methyl)-11-oxo-10, 11-dihydrodibenzo [b, f] [1, 4] thiazepine-8-carboxamide 5,5-dioxide hydrochloride], the activity at 10 µM in series [1] came out at 2%. The “AD38 Viability Normalized Result (cmpd/DMSO %) at 10 μM” value in the series with AD38 cells turned out to be 101%.
The matching figures for `CN(C)CCCOc1ccc(-c2ncc(CNC(=O)c3ccc4c(c3)NC(=O)c3ccccc3S4(=O)=O)s2)nc1` [compound 11011, N-((2-(5-(3-(dimethylamino)propoxy)pyridin-2-yl)thiazol-5-yl)methyl)-11-oxo-10, 11-dihydrodibenzo [b, f] [1, 4] thiazepine-8-carboxamide 5,5-dioxide]: 5.3% and 98%.
The corresponding values for `Cl.O=C(NCc1cnc(-c2ccc(C(=O)N3CCNCC3)cc2)s1)c1ccc2c(c1)NC(=O)c1ccccc1S2(=O)=O` [compound 11016, 11-oxo-N-((2-(4-(piperazine-1-carbonyl)phenyl)thiazol-5-yl)methyl)-10, 11-dihydrodibenzo [b, f] [1, 4] thiazepine-8-carboxamide 5,5-dioxide hydrochloride] are 38.8% and 106%.
As for `Cl.NCCNC(=O)c1ccc(-c2ncc(CNC(=O)c3ccc4c(c3)NC(=O)c3ccccc3S4(=O)=O)s2)cc1` [compound 11017, N-((2-(4-((2-aminoethyl)carbamoyl)phenyl)thiazol-5-yl)methyl)-11-oxo-10, 11-dihydrodibenzo [b, f] [1, 4] thiazepine-8-carboxamide 5,5-dioxide hydrochloride], the activity at 10 µM in series [1] amounted to 21%. Besides, the “AD38 Viability Normalized Result (cmpd/DMSO %) at 10 μM” value in the series on AD38 cells was determined as 86%.
Turning to `Cl.O=C(NCc1cnc(-c2ccc(N3CCNCC3)cc2)s1)c1ccc2c(c1)NC(=O)c1ccccc1S2(=O)=O` [compound 11018, 11-oxo-N-((2-(4-(piperazin-1-yl)phenyl)thiazol-5-yl)methyl)-10, 11-dihydrodibenzo [b, f] [1, 4] thiazepine-8-carboxamide 5,5-dioxide hydrochloride], in series [1], the activity at 10 µM came to 3.9%. Moreover, the “AD38 Viability Normalized Result (cmpd/DMSO %) at 10 μM” value with AD38 cells is recorded as 98%.
As to `Cl.O=C(NCc1cnc(-c2ccc(N3CCNCC3)nc2)s1)c1ccc2c(c1)NC(=O)c1ccccc1S2(=O)=O` [compound 11019, 11-oxo-N-((2-(6-(piperazin-1-yl)pyridin-3-yl)thiazol-5-yl)methyl)-10, 11-dihydrodibenzo [b, f] [1, 4] thiazepine-8-carboxamide 5,5-dioxide hydrochloride], the activity at 10 µM in series [1] stood at 14.3%. Further, the “AD38 Viability Normalized Result (cmpd/DMSO %) at 10 μM” value in the series with AD38 cells stood at 93%.
The corresponding values for `O=C(NCc1cnc(-c2ccc(OC3CCNCC3)cc2)s1)c1ccc2c(c1)NC(=O)c1ccccc1S2(=O)=O` [compound 11026, 11-oxo-N-((2-(4-(piperidin-4-yloxy)phenyl)thiazol-5-yl)methyl)-10, 11-dihydrodibenzo [b, f] [1, 4] thiazepine-8-carboxamide 5,5-dioxide] are 5.5% and 100%.
Turning to `O=C(NCc1cnc(-c2ccc(O[C@H]3CCNC3)cc2)s1)c1ccc2c(c1)NC(=O)c1ccccc1S2(=O)=O.O=C(O)C(F)(F)F` [compound 11028, (S)-11-oxo-N-((2-(4-(pyrrolidin-3-yloxy)phenyl)thiazol-5-yl)methyl)-10, 11-dihydrodibenzo [b, f] [1, 4] thiazepine-8-carboxamide 5,5-dioxide TFA salt], the activity at 10 µM in series [1] worked out at 5.2%. Besides, in the series with AD38 cells, the “AD38 Viability Normalized Result (cmpd/DMSO %) at 10 μM” value worked out at 92%.
The corresponding values for `Cl.O=C(NCc1cnc(-c2ccc(OC[C@@H]3CCCN3)cc2)s1)c1ccc2c(c1)NC(=O)c1ccccc1S2(=O)=O` [compound 11029, (S)-11-oxo-N-((2-(4-(pyrrolidin-2-ylmethoxy)phenyl)thiazol-5-yl)methyl)-10, 11-dihydrodibenzo [b, f] [1, 4] thiazepine-8-carboxamide 5,5-dioxide hydrochloride] are 5.3% and 105%.
